According to ChEMBL document CHEMBL5034031, “Discovery of Next-Generation Tropomyosin Receptor Kinase Inhibitors for Combating Multiple Resistance Associated with Protein Mutation” (J Med Chem, 2021):

Tests used:
[1] = Metabolic stability in human liver microsomes assessed as half life at 1 uM measured upto 90 mins in presence of NADPH regenerating system by LC-MS/MS analysis; format: ADME, Microsome
BaF3 [2] = assay: Antiproliferative activity against mouse BaF3 cells transfected with ETV6-wild type TRKC assessed as cell viability incubated for 72 hrs by CCK8 assay; format: functional, cell-based; settings: BaF3, 72 h
BaF3 [3] = assay: Antiproliferative activity against mouse BaF3 cells transfected with ETV6-wild type TRKA assessed as cell viability incubated for 72 hrs by CCK8 assay; format: functional, cell-based; settings: BaF3, 72 h
BaF3 [4] = assay: animal or person; format: functional; settings: Mus musculus, BaF3, po; read-out: TGI
BaF3 [5] = format: functional, cell-based; settings: Mus musculus, BaF3, 72 h
BaF3 [6] = assay: Antiproliferative activity against mouse BaF3 cells transfected with ETV6-wild type TRKB assessed as cell viability incubated for 72 hrs by CCK8 assay; format: functional, cell-based; settings: BaF3, 72 h
BaF3 [7] = assay: animal or person; format: functional; settings: Mus musculus, BaF3, po; read-out: TGI; remark: listed apart in the source

Cn1cc(-c2cnn3ccc(N4CCC[C@@H]4c4cc(F)ccc4OCC(F)F)nc23)cn1
half-life at 1 µM [1]: 8.3 min

C[C@@H]1CCc2ncc(F)cc2[C@H]2CCCN2c2ccn3ncc(c3n2)C(=O)N1 [SELITRECTINIB]
IC50 (BaF3 [2]): 1.6 nM
IC50 (BaF3 [3]): 1.1 nM
inhibition in vivo at 100 mg/kg (BaF3 [4]): 64%
IC50 (BaF3 [5]): 72.6 nM
IC50 (BaF3 [6]): 1.4 nM

C[C@@H](Nc1ccn2ncc(-c3cnn(C)c3)c2n1)c1cc(F)ccc1OCC(F)F
half-life at 1 µM [1]: 32.4 min

Cn1cc(-c2cnn3ccc(N4CCC[C@@H]4c4cc(F)ccc4F)nc23)cn1
half-life at 1 µM [1]: 3 min

O=C(Nc1cnn2ccc(N3CCC[C@@H]3c3cc(F)ccc3F)nc12)N1CC[C@H](O)C1 [LAROTRECTINIB]
inhibition in vivo at 15 mg/kg (BaF3 [7]): 70%
half-life at 1 µM [1]: 365 min
